According to patent publication US20040157798A1, “Drug for use in bone grafting” (priority 2001, published 2004):

Test system: 10 mm tibial defect model in rabbits
Assay: 10 mm tibial defect model in rabbits with calcium sulphate (Osteoset) cylinder; pQCT scans and radiographs
Type: in vivo, NZW rabbit
Conditions: for BMC / BMD / Polar Moment / Total Bone Area: 6 weeks; for Total Bone Area: CT slice at centre of defect
Description: The following example outlines the process by which the effects of bisphosphonates on potentiating new bone formation in a graft may be observed. In this regard, the effects on bone mineralisation and the mechanical properties are observed in a 10 mm tibial defect model in rabbits.
The present experiment uses an 8-week-old NZW rabbit model. A 10 mm gap is surgically removed from the tibiae of the rabbits. The bones are held with a M-100 external fixator.
Cylinders of calcium sulphate (Osteoset) were prepared on the day of surgery. Moulds were prepared using a combination of 1.0 ml and 3.0 ml syringes, and the Osteoset poured into the moulds in a sterile environment. The cylinders were removed from the moulds at 12 minutes, and allowed to dry in air for 90 minutes, followed by final drying in a microwave for 30 seconds. Once dry, the cylinders were formed into a standard dimension of 10 mm length, with an external diameter of 9 mm and with a 3 mm diameter internal core. The cylinders weighed 0.80.9 g. The cylinders were stored in sterile environment until required.
At the commencement of the operative procedure 0.15 ml of saline, or 0.15 ml of zoledronic acid (0.05 mg/kg) was adsorbed onto a calcium sulphate cylinder, which was then replaced into the sterile container.
The operative field was prepared by shaving with clippers, disinfected with povidone iodine 4% w/v in 70% alcohol. The right tibia was exposed sub-periosteally along its length and four 3 mm Orthofix pins inserted. An M-100 monolateral external fixator (Orthofix S.L.R) was applied. A 10 mm piece of mid-diaphyseal tibia was removed using an oscillating saw, along with the central 10 mm of periosteum. A calcium sulphate cylinder was then placed in the defect, and held by slight compression of the external fixator.
The animals were randomised such that at the time of surgery, 24 animals had Osteoset cylinders with saline adsorbed inserted, 12 of whom were given saline-only infusions and 12 of whom were given 0.1 mg/kg zoledronic acid infusion at the time of surgery and again on day 14. A further 12 animals had Osteoset cylinders with 0.15 ml of zoledronic acid (0.05 mg/kg) adsorbed inserted, and given a saline only infusion. Note that in the third leg the zoledronic acid was administered to the site via the cylinder, and not directly.
Animals were culled at 28 days (18 animals) and at 42 days (18 animals) with IV pentobarbitone 150 mg/kg.
[…]. CT scans were performed at 28 days (18 animals) and at 42 days (18 animals) using a Stratec XCT Research SA pQCT scanner.

[1] = IV ZA 0.1 mg/kg at surgery and day 14
[2] = Local ZA 0.05 mg/kg adsorbed on cylinder

## O=P(O)(O)C(O)(Cn1ccnc1)P(=O)(O)O [ZA, 1-hydroxy-2-[(1H-imidazol-1-yl)ethylidine]bisphosphonic acid]
4 weeks, IV ZA group
  Bone area increase over controls: 131%
  Polar moment of inertia increase over controls: 104%
4 weeks, Local ZA group
  Bone area increase over controls: 216%
  Polar moment of inertia increase over controls: 316%
[1]
  BMC: 45.9 (20.7) mg/mm
  BMD: 784.6 (97.7) mg/cm^3
  Polar Moment: 442.8 (585.2) mm^4
IV ZA 0.1 mg/kg infusion at surgery and day 14
  Total Bone Area: 58.0 (23.2) mm^2
Local ZA 0.05 mg/kg adsorbed on calcium sulphate cylinder
  Total Bone Area: 66.6 (7.9) mm^2
[2]
  BMC: 45.0 (5.4) mg/mm
  BMD: 676.2 (49.3) mg/cm^3
  Polar Moment: 1343.1 (254.7) mm^4
Six weeks, Local ZA group
  Polar moment of inertia increase over controls: 40%
Six weeks, local bisphosphonate group, not significant
  Cross sectional area increase over controls: 20%
